Test results: patent US20100298141A1, “SUBSTITUTED PYRIDINE N-OXIDE HERBICIDES” (E. I. DU PONT DE NEMOURS AND COMPANY, priority 2007, published 2010)

Columns and labels:
barnyardgrass [1] = assay: Test A pre-/postemergence greenhouse test; type: in vivo, Echinochloa crus-galli; settings: for Plant response rating, Barnyardgrass: 0 to 100 scale where 0 is no effect and 100 is complete control; for Barnyardgrass plant response rating: 0 to 100 scale
How it was run: (§1)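 Herbicidal effect is a visual injury score given about ten days post-treatment by comparison with untreated controls. Preemergence plots received a directed spray onto sown loam–sand soil; postemergence plants, at the one- to two-leaf stage and 2–10 cm tall, were sprayed at the same time.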

crabgrass [2] = assay: Test A pre-/postemergence greenhouse test; type: in vivo, Digitaria sanguinalis; settings: for Plant response rating, Crabgrass, Large: 0 to 100 scale where 0 is no effect and 100 is complete control; for Crabgrass, Large plant response rating: 0 to 100 scale
How it was run: as §1

giant foxtail = assay: Test A pre-/postemergence greenhouse test; type: in vivo, Setaria faberi; settings: for Plant response rating, Foxtail, Giant: 0 to 100 scale where 0 is no effect and 100 is complete control; for Foxtail, Giant plant response rating: 0 to 100 scale
How it was run: as §1

morningglory = assay: Test A pre-/postemergence greenhouse test; type: in vivo, Ipomoea spp.; settings: for Plant response rating, Morningglory: 0 to 100 scale where 0 is no effect and 100 is complete control; for Morningglory plant response rating: 0 to 100 scale
How it was run: as §1

Italian ryegrass = assay: Test C pre-/postemergence test; type: in vivo, Lolium multiflorum
How it was run: (§2)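 Compounds in a non-phytotoxic solvent with surfactant applied preemergence to seeded pots and, at the same time, postemergence to plants 2–18 cm tall (1- to 4-leaf stage). Paddy tests: pots flooded to 3 cm, compound applied into the water, depth held throughout.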

bermudagrass = assay: Test C pre-/postemergence test; type: in vivo, Cynodon dactylon
How it was run: as §2

Surinam grass = assay: Test C pre-/postemergence test; type: in vivo, Brachiaria decumbens
How it was run: as §2

cocklebur = assay: Test C pre-/postemergence test; type: in vivo, Xanthium strumarium
How it was run: as §2

crabgrass [3] = assay: Test C pre-/postemergence test; type: in vivo, Digitaria sanguinalis
How it was run: as §2

Goosegrass = assay: Test C pre-/postemergence test; type: in vivo, Eleusin indica
How it was run: as §2

kochia = assay: Test C pre-/postemergence test; type: in vivo, Kochia scoparia
How it was run: as §2

lambsquarters = assay: Test C pre-/postemergence test; type: in vivo, Chenopodium album
How it was run: as §2

pigweed = assay: Test C pre-/postemergence test; type: in vivo, Amaranthus retroflexus
How it was run: as §2

soybean = assay: Test C pre-/postemergence test; type: in vivo, Glycine max; settings: for Soybean plant response rating: preemergence, scale 0 (no effect) to 100 (complete control)
How it was run: as §2

[4] = system: common (oilseed) sunflower; assay: Test C pre-/postemergence test; type: in vivo, Helianthus annuus
How it was run: as §2

umbrella sedge = assay: Test C flooded paddy test; type: in vivo, Cyperus difformis; settings: Flood, 250 g ai/ha; scale 0 to 100, 0 no effect, 100 complete control; 13 to 15 days
How it was run: (§3)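 Test compounds are applied straight into paddy water held 3 cm above the soil surface, with that flood maintained for the whole test. After 13 to 15 days in the greenhouse, each species is scored visually relative to controls.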

barnyardgrass [5] = assay: Test C flooded paddy test; type: in vivo, Echinochloa crus-galli; settings: Flood, scale 0 to 100, 0 no effect, 100 complete control, 13 to 15 days
How it was run: as §3

[6] = Postemergence, 500 g ai/ha, 0 is no effect, 100 is complete control
[7] = Preemergence, 125 g ai/ha, 0 no effect, 100 complete control
[8] = 62 g ai/ha, Preemergence, scale 0 to 100
[9] = 125 g ai/ha, preemergence, scale 0 (no effect) to 100 (complete control)
[10] = Postemergence, 125 g ai/ha, scale 0 to 100, 0 no effect, 100 complete control
[11] = Postemergence, 250 g ai/ha, scale 0 to 100, 0 no effect, 100 complete control
[12] = Preemergence, 31 g ai/ha, scale 0 to 100 (0 no effect, 100 complete control)
[13] = preemergence, 250 g ai/ha, scale 0 (no effect) to 100 (complete control)
[14] = Postemergence, 62 g ai/ha, scale 0 to 100, 0 no effect, 100 complete control

## [O-][n+]1cc(Cl)ccc1[S+]([O-])Cc1c(C(F)(F)F)nn(CC(F)(F)F)c1Cl (stereo not drawn) [Compound 47]
Barnyardgrass [1]; Postemergence, 125 g ai/ha
  Plant response rating, Barnyardgrass: 80
Barnyardgrass [1]; [6]
  Barnyardgrass plant response rating: 90
Barnyardgrass [1]; [7]
  Barnyardgrass plant response rating: 90
Barnyardgrass [1]; Preemergence, 500 g ai/ha
  Plant response rating, Barnyardgrass: 100
Crabgrass [2]; Postemergence, 125 g ai/ha
  Plant response rating, Crabgrass, Large: 80
Crabgrass [2]; [6]
  Crabgrass, Large plant response rating: 90
Crabgrass [2]; [7]
  Crabgrass, Large plant response rating: 80
Crabgrass [2]; Preemergence, 500 g ai/ha
  Plant response rating, Crabgrass, Large: 100
Giant foxtail; Postemergence, 125 g ai/ha
  Plant response rating, Foxtail, Giant: 80
Giant foxtail; [6]
  Foxtail, Giant plant response rating: 90
Giant foxtail; [7]
  Foxtail, Giant plant response rating: 100
Giant foxtail; Preemergence, 500 g ai/ha
  Plant response rating, Foxtail, Giant: 100
morningglory; Postemergence, 125 g ai/ha
  Plant response rating, Morningglory: 60
morningglory; [6]
  Morningglory plant response rating: 90
morningglory; [7]
  Morningglory plant response rating: 60
morningglory; Preemergence, 500 g ai/ha
  Plant response rating, Morningglory: 80
Italian ryegrass; [8]
  Ryegrass, Italian plant response rating: 20
Italian ryegrass; [9]
  Ryegrass, Italian plant response rating: 50
Italian ryegrass; Postemergence, 31 g ai/ha
  Plant response rating (0 to 100), Ryegrass, Italian: 0
Italian ryegrass; Postemergence, 62 g ai/ha
  Plant response rating (0 to 100), Ryegrass, Italian: 0
Italian ryegrass; [10]
  Plant response rating, Ryegrass, Italian: 0
Italian ryegrass; [11]
  Plant response rating, Ryegrass, Italian: 40
Italian ryegrass; [12]
  Plant response rating, Ryegrass, Italian: 0
Italian ryegrass; [13]
  Ryegrass, Italian plant response rating: 85
bermudagrass; 62 g ai/ha, Preemergence, scale 0 to 100 (0 no effect, 100 complete control)
  Bermudagrass plant response rating: 100
bermudagrass; [9]
  Bermudagrass plant response rating: 100
bermudagrass; Postemergence, 31 g ai/ha
  Plant response rating (0 to 100), Bermudagrass: 0
bermudagrass; [14]
  Plant response rating, Bermudagrass: 0
bermudagrass; [10]
  Plant response rating, Bermudagrass: 0
bermudagrass; [11]
  Plant response rating, Bermudagrass: 0
bermudagrass; [12]
  Plant response rating, Bermudagrass: 80
bermudagrass; [13]
  Bermudagrass plant response rating: 100
Surinam grass; [8]
  Surinam Grass plant response rating: 80
Surinam grass; [9]
  Surinam Grass plant response rating: 100
Surinam grass; Postemergence, 31 g ai/ha
  Plant response rating (0 to 100), Surinam Grass: 0
Surinam grass; Postemergence, 62 g ai/ha
  Plant response rating (0 to 100), Surinam Grass: 0
Surinam grass; [10]
  Plant response rating, Surinam Grass: 0
Surinam grass; [11]
  Plant response rating, Surinam Grass: 60
Surinam grass; [12]
  Plant response rating, Surinam Grass: 50
Surinam grass; [13]
  Surinam Grass plant response rating: 100
cocklebur; [8]
  Cocklebur plant response rating: 0
cocklebur; [9]
  Cocklebur plant response rating: 0
cocklebur; Postemergence, 31 g ai/ha
  Plant response rating (0 to 100), Cocklebur: 0
cocklebur; [14]
  Plant response rating, Cocklebur: 0
cocklebur; [10]
  Plant response rating, Cocklebur: 0
cocklebur; [11]
  Plant response rating, Cocklebur: 0
cocklebur; [12]
  Plant response rating, Cocklebur: 0
cocklebur; [13]
  Cocklebur plant response rating: 0
Crabgrass [3]; [8]
  Crabgrass, Large plant response rating: 100
Crabgrass [3]; [9]
  Crabgrass, Large plant response rating: 100
Crabgrass [3]; Postemergence, 31 g ai/ha
  Plant response rating (0 to 100), Crabgrass, Large: 0
Crabgrass [3]; [14]
  Plant response rating, Crabgrass, Large: 0
Crabgrass [3]; [10]
  Plant response rating, Crabgrass, Large: 0
Crabgrass [3]; [11]
  Plant response rating, Crabgrass, Large: 30
Crabgrass [3]; [12]
  Plant response rating, Crabgrass, Large: 98
Crabgrass [3]; [13]
  Crabgrass, Large plant response rating: 100
Goosegrass; [8]
  Goosegrass plant response rating: 100
Goosegrass; [9]
  Goosegrass plant response rating: 100
Goosegrass; Postemergence, 31 g ai/ha
  Plant response rating (0 to 100), Goosegrass: 0
Goosegrass; [14]
  Plant response rating, Goosegrass: 0
Goosegrass; [10]
  Plant response rating, Goosegrass: 0
Goosegrass; [11]
  Plant response rating, Goosegrass: 60
Goosegrass; [12]
  Plant response rating, Goosegrass: 98
Goosegrass; [13]
  Goosegrass plant response rating: 100
kochia; [8]
  Kochia plant response rating: 0
kochia; [9]
  Kochia plant response rating: 100
kochia; Postemergence, 31 g ai/ha
  Plant response rating (0 to 100), Kochia: 0
kochia; [14]
  Plant response rating, Kochia: 0
kochia; [10]
  Plant response rating, Kochia: 0
kochia; [11]
  Plant response rating, Kochia: 0
kochia; [12]
  Plant response rating, Kochia: 0
kochia; [13]
  Kochia plant response rating: 100
lambsquarters; [8]
  Lambsquarters plant response rating: 100
lambsquarters; [9]
  Lambsquarters plant response rating: 100
lambsquarters; Postemergence, 31 g ai/ha
  Plant response rating (0 to 100), Lambsquarters: 0
lambsquarters; [14]
  Plant response rating, Lambsquarters: 0
lambsquarters; [10]
  Plant response rating, Lambsquarters: 0
lambsquarters; [11]
  Plant response rating, Lambsquarters: 50
lambsquarters; [12]
  Plant response rating, Lambsquarters: 100
lambsquarters; [13]
  Lambsquarters plant response rating: 100
pigweed; [8]
  Pigweed plant response rating: 100
pigweed; [9]
  Pigweed plant response rating: 100
pigweed; Postemergence, 31 g ai/ha
  Plant response rating (0 to 100), Pigweed: 0
pigweed; Postemergence, 62 g ai/ha
  Plant response rating (0 to 100), Pigweed: 0
pigweed; [10]
  Plant response rating, Pigweed: 0
pigweed; [11]
  Plant response rating, Pigweed: 45
pigweed; [12]
  Plant response rating, Pigweed: 70
pigweed; [13]
  Pigweed plant response rating: 100
soybean; 125 g ai/ha
  Soybean plant response rating: 60
soybean; Postemergence, 31 g ai/ha
  Plant response rating (0 to 100), Soybean: 5
soybean; Postemergence, 62 g ai/ha
  Plant response rating (0 to 100), Soybean: 15
soybean; [10]
  Plant response rating, Soybean: 20
soybean; [11]
  Plant response rating, Soybean: 50
soybean; [12]
  Plant response rating, Soybean: 0
soybean; 250 g ai/ha
  Soybean plant response rating: 80
[4]; [8]
  Sunflower plant response rating: 0
[4]; [9]
  Sunflower plant response rating: 0
[4]; [12]
  Plant response rating, Sunflower: 0
[4]; [13]
  Sunflower plant response rating: 0
Umbrella sedge
  Plant response rating, Sedge, Umbrella: 100
Barnyardgrass [5]; 62 g ai/ha
  Plant response rating, Barnyardgrass: 50
Barnyardgrass [5]; 250 g ai/ha
  Plant response rating, Barnyardgrass: 80
